# From US20120065267A1, “COMPOSITIONS INCLUDING 3,5-L-T2 AND METHODS OF USE THEREOF” (priority 2010, published 2012)
# Where “and” joins values, the source holds several entries; their conditions need not be identical. Identical values can stand only once.
# How the values were obtained:
# [1] = tested on: growth hormone gene expression; conditions: cited from earlier work
# TR β gene expression = conditions: relative to T3; cited from earlier work
# [2] = Body weight of mice on Western Diet given low or high dose T2; format: in vivo
# Procedure: This corresponds to a dosage for an 80 kg human of about 20-200 mg/day, or a low dose of about 0.2-0.3 mg/kg of body weight to a high dose of about 2-3 mg/kg of body weight. One will appreciate, however, that some subjects (e.g., subjects having very low LDL receptor function) may receive higher doses, depending on need. likewise, some subjects may receive lower doses, which again depends on need. Mice in the study were fed a standard lab chow referred to as the “Western Diet.” The overall level of fat and the saturated nature of the fat are representative diets typical in the industrialized west that are linked to risk of cardiovascular disease in humans. The formula is used primarily with genetically manipulated rodent models that are susceptible to high cholesterol and cardiovascular disease. The diet may also be useful in diet-induced obesity, diabetes, and metabolic syndrome models. High cholesterol, obesity, and diabetes are each associated increased risk for cardiovascular disease. The composition of the Western Diet is shown below. C57 is a wild-type strain, LDLr+/− are a strain carrying one functional copy of the LDLr gene, and the LDLr0 animals are total LDLr knockouts. The LDLr gene encodes for the LDL receptor protein, which is responsible for scavenging LDL with bound cholesterol from the blood and transporting it into cells. Both heterozygous and homozygous LDLr knockout animals develop very high serum cholesterol levels and are considered to be a good model for heterozygous and homozygous familial hypercholesterolemia in humans. […] LDLr knockout animals have zero LDL receptor function.
structure (smiles),measurement,setting,value
"N[C@@H](Cc1cc(I)c(Oc2ccc(O)cc2)c(I)c1)C(=O)O [T2, (2S)-2-amino-3-[4-(4-hydroxyphenoxy)-3,5-diiodophenyl]propanoic acid]",potency relative to T3 in increasing growth hormone gene expression,[1],1/100
same,less potent than T3 in decreasing TR β gene expression,TR β gene expression,50%
same,Body weight (Ave),"[2]; C57 mice, High Dose T2 2.5 mg/kg daily oral, Day 1, group average",28.1 g
same,Body weight,"[2]; C57 mice, High Dose T2 2.5 mg/kg daily oral, Day 1, individual animal, 2.5 mg/kg",29.6 (2×) and 24.9 and 29.8 and 26.7
same,Body weight (Ave),"[2]; C57 mice, High Dose T2 2.5 mg/kg daily oral, Day 2, group average",28.4 g
same,Body weight,"[2]; C57 mice, High Dose T2 2.5 mg/kg daily oral, Day 2, individual animal, 2.5 mg/kg, in g (unit assumed)",29.5 and 30.1 and 25.8 and 29.7 and 27.1
same,Body weight (Ave),"[2]; C57 mice, High Dose T2 2.5 mg/kg daily oral, Day 3, group average",28.4 g
same,Body weight,"[2]; C57 mice, High Dose T2 2.5 mg/kg daily oral, Day 3, individual animal, 2.5 mg/kg, in g (unit assumed)",29.8 and 30.0 and 25.1 and 29.9 and 27.2
same,Body weight (Ave),"[2]; C57 mice, High Dose T2 2.5 mg/kg daily oral, Day 4, group average",27.4 g
same,Body weight,"[2]; C57 mice, High Dose T2 2.5 mg/kg daily oral, Day 4, individual animal, 2.5 mg/kg, in g (unit assumed)",29.1 and 28.7 and 23.4 and 28.8 and 27
same,Body weight (Ave),"[2]; C57 mice, High Dose T2 2.5 mg/kg daily oral, Day 5, group average",27.7 g
same,Body weight,"[2]; C57 mice, High Dose T2 2.5 mg/kg daily oral, Day 5, individual animal, 2.5 mg/kg, in g (unit assumed)",29.7 and 29.1 and 24.1 and 28.5 and 27.3
same,Body weight (Ave),"[2]; C57 mice, Low Dose T2 0.25 mg/kg daily oral, Day 1, group average",25.2 g
same,Body weight,"[2]; C57 mice, Low Dose T2 0.25 mg/kg daily oral, Day 1, individual animal, 0.25 mg/kg, in g (unit assumed)",26.5 and 27.0 and 23.0 and 26.4 and 24.0 and 24.1
same,Body weight (Ave),"[2]; C57 mice, Low Dose T2 0.25 mg/kg daily oral, Day 2, group average",26.1 g
same,Body weight,"[2]; C57 mice, Low Dose T2 0.25 mg/kg daily oral, Day 2, individual animal, 0.25 mg/kg, in g (unit assumed)",28.2 and 27.7 and 24.1 and 26.3 and 25.5 and 24.9
same,Body weight (Ave),"[2]; C57 mice, Low Dose T2 0.25 mg/kg daily oral, Day 3, group average",26.5 g
same,Body weight,"[2]; C57 mice, Low Dose T2 0.25 mg/kg daily oral, Day 3, individual animal, 0.25 mg/kg, in g (unit assumed)",28.3 and 27.8 and 23.3 and 27.9 and 26.2 and 25.6
same,Body weight (Ave),"[2]; C57 mice, Low Dose T2 0.25 mg/kg daily oral, Day 4, group average",25.8 g
same,Body weight,"[2]; C57 mice, Low Dose T2 0.25 mg/kg daily oral, Day 4, individual animal, 0.25 mg/kg, in g (unit assumed)",26.8 and 27.2 and 23.7 and 26.7 and 25.1 and 25.4
same,Body weight (Ave),"[2]; C57 mice, Low Dose T2 0.25 mg/kg daily oral, Day 5, group average",26.8 g
same,Body weight,"[2]; C57 mice, Low Dose T2 0.25 mg/kg daily oral, Day 5, individual animal, 0.25 mg/kg, in g (unit assumed)",27.3 and 28.3 and 24.5 and 27.5 and 26.4
same,Body weight (Ave),"[2]; C57 mice, Low Dose T2 0.25 mg/kg daily oral, Day 6, group average",27.5 g
same,Body weight,"[2]; C57 mice, Low Dose T2 0.25 mg/kg daily oral, Day 6, individual animal, 0.25 mg/kg, in g (unit assumed)",28.1 and 29.9 and 24.8 and 28.7 and 26.1
same,Body weight (Ave),"[2]; C57 mice, Low Dose T2 0.25 mg/kg daily oral, Day 7, group average",28.3 g
same,Body weight,"[2]; C57 mice, Low Dose T2 0.25 mg/kg daily oral, Day 7, individual animal, 0.25 mg/kg, in g (unit assumed)",29.5 and 30.7 and 26.2 and 29.0 and 26.1
same,Body weight (Ave),"[2]; LDLr0 mice, High Dose T2 2.5 mg/kg daily oral, Day 1, group average",25.7 g
same,Body weight,"[2]; LDLr0 mice, High Dose T2 2.5 mg/kg daily oral, Day 1, individual animal, 2.5 mg/kg, in g (unit assumed)",23.9 and 27.4
same,Body weight (Ave),"[2]; LDLr0 mice, High Dose T2 2.5 mg/kg daily oral, Day 2, group average",24 g
same,Body weight,"[2]; LDLr0 mice, High Dose T2 2.5 mg/kg daily oral, Day 2, individual animal, 2.5 mg/kg, in g (unit assumed)",23.1 and 24.8
same,Body weight (Ave),"[2]; LDLr0 mice, High Dose T2 2.5 mg/kg daily oral, Day 3, group average",23.9 g
same,Body weight,"[2]; LDLr0 mice, High Dose T2 2.5 mg/kg daily oral, Day 3, individual animal, 2.5 mg/kg, in g (unit assumed)",22.8 and 24.9
same,Body weight (Ave),"[2]; LDLr0 mice, High Dose T2 2.5 mg/kg daily oral, Day 4, group average",24.2 g
same,Body weight,"[2]; LDLr0 mice, High Dose T2 2.5 mg/kg daily oral, Day 4, individual animal, 2.5 mg/kg, in g (unit assumed)",23.5 and 24.8
same,Body weight (Ave),"[2]; LDLr0 mice, High Dose T2 2.5 mg/kg daily oral, Day 5, group average",24.2 g
same,Body weight,"[2]; LDLr0 mice, High Dose T2 2.5 mg/kg daily oral, Day 5, individual animal, 2.5 mg/kg, in g (unit assumed)",23.1 and 25.3
same,Body weight (Ave),"[2]; LDLr0 mice, Low Dose T2 0.25 mg/kg daily oral, Day 1, group average",22.3 g
same,Body weight,"[2]; LDLr0 mice, Low Dose T2 0.25 mg/kg daily oral, Day 1, individual animal, 0.25 mg/kg, in g (unit assumed)",23.1 and 21.1 and 22.7 and 22.1
same,Body weight (Ave),"[2]; LDLr0 mice, Low Dose T2 0.25 mg/kg daily oral, Day 2, group average",22.8 g
same,Body weight,"[2]; LDLr0 mice, Low Dose T2 0.25 mg/kg daily oral, Day 2, individual animal, 0.25 mg/kg, in g (unit assumed)",21.6 and 23.6 and 23.2
same,Body weight (Ave),"[2]; LDLr0 mice, Low Dose T2 0.25 mg/kg daily oral, Day 3, group average",23.4 g
same,Body weight,"[2]; LDLr0 mice, Low Dose T2 0.25 mg/kg daily oral, Day 3, individual animal, 0.25 mg/kg, in g (unit assumed)",22.3 and 24.4 and 23.5
same,Body weight (Ave),"[2]; LDLr0 mice, Low Dose T2 0.25 mg/kg daily oral, Day 4, group average",22.3 g
same,Body weight,"[2]; LDLr0 mice, Low Dose T2 0.25 mg/kg daily oral, Day 4, individual animal, 0.25 mg/kg, in g (unit assumed)",21.2 and 22.9 and 22.8
same,Body weight (Ave),"[2]; LDLr0 mice, Low Dose T2 0.25 mg/kg daily oral, Day 5, group average",22.4 g
same,Body weight,"[2]; LDLr0 mice, Low Dose T2 0.25 mg/kg daily oral, Day 5, individual animal, 0.25 mg/kg, in g (unit assumed)",22.0 and 22.2 and 23.0
same,Body weight (Ave),"[2]; LDLr0 mice, Low Dose T2 0.25 mg/kg daily oral, Day 6, group average",22.3 g
same,Body weight,"[2]; LDLr0 mice, Low Dose T2 0.25 mg/kg daily oral, Day 6, individual animal, 0.25 mg/kg, in g (unit assumed)",22.1 and 21.7 and 23.1
same,Body weight (Ave),"[2]; LDLr0 mice, Low Dose T2 0.25 mg/kg daily oral, Day 7, group average",22.2 g
same,Body weight,"[2]; LDLr0 mice, Low Dose T2 0.25 mg/kg daily oral, Day 7, individual animal, 0.25 mg/kg, in g (unit assumed)",22.4 and 20.6 and 23.6
same,Body weight (Ave),"[2]; LDLr+/− mice, High Dose T2 2.5 mg/kg daily oral, Day 1, group average",30.8 g
same,Body weight,"[2]; LDLr+/− mice, High Dose T2 2.5 mg/kg daily oral, Day 1, individual animal, 2.5 mg/kg, in g (unit assumed)",32.8 and 31.8 and 29.8 and 31.4 and 29.2 and 29.6
same,Body weight (Ave),"[2]; LDLr+/− mice, High Dose T2 2.5 mg/kg daily oral, Day 2, group average",31.3 g
same,Body weight,"[2]; LDLr+/− mice, High Dose T2 2.5 mg/kg daily oral, Day 2, individual animal, 2.5 mg/kg, in g (unit assumed)",33.3 and 34.5 and 29.8 and 31.0 and 29.1 and 29.9
same,Body weight (Ave),"[2]; LDLr+/− mice, High Dose T2 2.5 mg/kg daily oral, Day 3, group average",31.1 g
same,Body weight,"[2]; LDLr+/− mice, High Dose T2 2.5 mg/kg daily oral, Day 3, individual animal, 2.5 mg/kg",33.1 and 33.9 and 29.8 (2×) and 30.9 and 29.3
same,Body weight (Ave),"[2]; LDLr+/− mice, High Dose T2 2.5 mg/kg daily oral, Day 4, group average",29.8 g
same,Body weight,"[2]; LDLr+/− mice, High Dose T2 2.5 mg/kg daily oral, Day 4, individual animal, 2.5 mg/kg, in g (unit assumed)",32.1 and 33.0 and 29.0 and 30.1 and 27.9 and 26.8
